Series [1] can be described thus: Parallel artificial membrane permeability assay (PAMPA). The conditions noted are these: 200 μM initial concentration, pH 7.4, 4 hours, room temperature. It is filed as in vitro ADME. As to the method:
Parallel artificial membrane permeability assay (PAMPA) described in Kansy M et al., J. Med. Chem. 1998; 41(7):1007-10 was used to determine the capacity of compounds to cross the Blood-Brain Barrier (BBB) by passive diffusion (Di L et al., Eur. J. Med. Chem. 2003; 38(3):223-32). The effective permeability (Pe) of the compounds was measured at an initial concentration of 200 μM. The buffer solution was prepared from a commercial concentrated one following the manufacturer's instructions. pH was adjusted to 7.4 using a 0.5 M NaOH solution. A stock solution of new compound was prepared in DMSO and diluted with buffer solution to a final 200 μM concentration (0.5% DMSO content). The PAMPA sandwich was separated and each donor well was filled with 200 μL of the compound solution. The acceptor plate was placed into the donor plate, ensuring that the underside of the membrane was in contact with buffer. 4 μL of the mixture of phospholipids (20 mg/mL) in dodecane was added to the filter of each well, and 200 μL of buffer solution was added to the each acceptor well. The plate was covered and incubated at room temperature in a saturated humidity atmosphere for 4 hours under orbital agitation at 100 rpm. After 4 hours, the contents of the acceptor and donor compartments were analyzed by HPLC: 150 μL of each well from the donor plate and 150 μL of each well from the acceptor plate were transferred to HPLC vials, injecting each sample into a reverse-phase C18 column (150 mm×4.6 mm×5 μm, 100 Å) (100 μL/injection from the acceptor wells, 10 μL/injection from the donor wells and for t0 references). Transport was also confirmed by MALDI-TOF spectrometry.
The phospholipid mixture used was a porcine polar brain lipid extract, provided by Avanti polar lipids, with the following composition: 12.6% phosphatidylcholine (PC), 33.1% phosphatidylethanolamine (PE), 18.5% phosphatidylserine (PS), 4.1% phosphatidylinositol (PI), 0.8% phosphatidic acid and 30.9% of other compounds.
The effective permeability (Pe) after 4 hours was calculated using equation 2 and the percentage of transport was calculated using equation 3:
[formula] wherein: t is time (h) CA(t) is the compound concentration in the acceptor well at time t and CD(to) is the compound concentration in the donor well at to.
Background: In PAMPA a lipid-coated filter parts donor from acceptor wells.

The target in series [2] is human prolyl oligopeptidase (Homo sapiens (Human), UniProt P48147). The experiment in a line: POP inhibition assay (Z-G-P-AMC substrate, fluorimetric). The class given is biochemical. The conditions noted are these: 100 mM Na/K phosphate buffer, pH 8.0, hPOP 20 to 60 nM, Z-G-P-AMC, 1 hour at 37° C.; read-out: IC50, inhibition of human prolyl oligopeptidase. As to the method:
Expression and Purification of Prolyl Oligopeptidase (POP)
POP was obtained by expression in E. coli and affinity purification using a His tail fusion according to a literature procedure (Tarragó T et al., ChemBioChem 2006; 7:827-33) summarized below:
hPOP expression: E. coli BL21 competent cells were transformed with pETM10 hPOP. To induce expression, a pre-culture of LB medium (50 mL) containing kanamycin (50 μg/mL) was inoculated with one colony and was grown overnight at 37° C. Next day, two cultures of LB medium (500 mL) were inoculated with the overnight culture (10 mL). The inoculated cultures were grown at 37° C. and 220 rpm until the OD595 was 1.2 (2.5-3 hours). IPTG was then added (final concentration of 1 mM) and induction was performed overnight at 25° C. Cells were harvested (3500 g, 15 min, 4° C.) and the pellet was suspended in suspension buffer (50 mL) [Tris-HCl pH 8 (50 mM), NaCl (300 mM), imidazole (1 mM)] and sonicated with use of four cycles (each consisting of 15 sec of sonication and 15 sec of rest) at an intensity of 50% and 0.5 pulses, the sample being kept on ice. After sonication, the sample was centrifuged (40 000 g, 30 min, 4° C.) and the supernatant was used immediately for POP purification. An ÁKTA explorer FPLC system was used for purification. The supernatant was applied at a flow of 1 mL/min to a HiTrapQuelating column (5 mL) previously equilibrated with 5 column volumes of suspension buffer. The column was washed with suspension buffer until the absorbance at 280 nm returned to basal level. The column was then rinsed with 5 volumes of washing buffer (50 mM Tris-HCl, pH 8, 300 mM NaCl, 30 mM imidazole). The elution was performed with 4 volumes of elution buffer (50 mM Tris-HCl, pH 8, 300 mM NaCl, 500 mM imidazole). Fractions (4 mL) were collected during the entire elution. POP activity was checked in all fractions and positive ones were analyzed by SDS-PAGE and stained with Biosafe Comassie Stain G-250. Positive fractions were collected and desalted by use of a HiPrep 26/10 Desalting column with Tris-HCl (50 mM, pH 8) as buffer. Recombinant hPOP was quantified with the Bio-Rad Protein Assay with BSA as standard. Aliquots of the recombinant enzyme were prepared and immediately frozen with liquid nitrogen and stored at −80° C.
POP activity was determined following the method described by Toide et al (Toide K et al., J. Pharmacol. Exp. Ther. 1995; 274:1370-8), using Z-G-P-AMC (N-benzyloxycarbonyl-Gly-Pro-methylcoumarinyl-7-amide) as POP substrate. The reactions were performed in 96-well microtiter plates, which allowed simultaneous monitoring of multiple reactions. For each reaction, activity buffer (134 μl, 100 mM Na/K phosphate buffer, pH 8.0) was pre-incubated for 15 min at 37° C. with hPOP (ranging from 20 to 60 nM, depending on the activity of the hPOP batch) and the corresponding new compound solution (3 μl). A stock solution of new compound was prepared in DMSO (100 mM), and dilutions were prepared from this stock solution with DMSO. Alternatively, the reactions were performed using another activity buffer (141 μL, 100 mM Tris-acetate, […], 1 mM DTT, pH 7.3), pre-incubating with hPOP (10 nM) and the corresponding new compound solution (3 μl) (Conditions B).
After preincubation, Z-G-P-AMC (10 μl, 3 mM in 40% 1,4-dioxane) was added (3 μl, 1.5 mM in 40% of 1,4-dioxane, in Conditions B), and the reaction was incubated for 1 hour at 37° C. The reaction was stopped by adding sodium acetate (150 μl, 1 M, pH 4) and the formation of AMC was measured fluorimetrically. The excitation and emission wavelengths were 360/40 and 485/20 nm, respectively.
Several concentration points (ranging from 25 μM to 400 μM) were measured for each compound. The inhibitory activity on prolyl oligopeptidase was calculated according to eq 1. For each new compound, the fluorescence in the presence (a) and in the absence of hPOP (b) was measured. […]

The structures appear in SMILES notation.

A word on the IC50: it is the concentration at which inhibition is half-maximal.

Sequence of human prolyl oligopeptidase (P48147 whole entry): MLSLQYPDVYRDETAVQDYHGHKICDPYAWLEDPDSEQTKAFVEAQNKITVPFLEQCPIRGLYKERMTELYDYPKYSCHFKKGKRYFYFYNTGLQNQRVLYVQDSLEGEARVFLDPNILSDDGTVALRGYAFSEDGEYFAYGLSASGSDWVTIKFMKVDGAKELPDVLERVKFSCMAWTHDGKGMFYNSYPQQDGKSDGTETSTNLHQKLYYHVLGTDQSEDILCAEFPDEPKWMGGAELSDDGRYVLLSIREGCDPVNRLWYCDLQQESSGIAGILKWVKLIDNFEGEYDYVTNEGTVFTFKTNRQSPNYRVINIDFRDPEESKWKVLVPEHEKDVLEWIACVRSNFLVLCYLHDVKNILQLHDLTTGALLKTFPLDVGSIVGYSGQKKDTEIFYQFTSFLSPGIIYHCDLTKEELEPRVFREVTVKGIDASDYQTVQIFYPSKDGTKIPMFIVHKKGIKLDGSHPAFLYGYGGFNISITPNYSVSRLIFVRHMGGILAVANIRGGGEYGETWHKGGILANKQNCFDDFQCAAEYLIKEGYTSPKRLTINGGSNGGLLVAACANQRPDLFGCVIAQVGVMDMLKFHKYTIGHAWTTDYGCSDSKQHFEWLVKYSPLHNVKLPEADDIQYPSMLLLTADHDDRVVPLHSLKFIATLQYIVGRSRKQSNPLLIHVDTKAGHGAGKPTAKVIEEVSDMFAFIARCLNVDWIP

`COc1cc(C(=O)N2CC(F)(F)C[C@H]2C(=O)N2CCC[C@H]2C#N)cc(OC)c1OCc1ccccc1` [Example 4, (S)-1-((2S)-1-(4-(benzyloxy)-3,5-dimethoxybenzoyl)-4,4-difluoropyrrolidine-2-carbonyl)pyrrolidine-2-carbonitrile]: in series [1], the “% T (percentage of transport)” value turned out to be 29.92%. For the same compound, in series [1] (PAMPA, read-out: Effective permeability Pe), the Papp at 4 h, 200 μM came to 22.1 ×10⁻⁶ cm/s. Besides, in series [2], the IC50 was 48.7 nM.
